Results from US9868737B2, “Pyridino[1,2-A]pyrimidone analogue used as MTOR/P13K inhibitor” (CISEN PHARMACEUTICAL CO., LTD., priority 2014, dated 2018).
Read-outs that look alike come from different tables or passages of the source.

Test system: MCF-7 cells
Assay: In vitro test of cell activity (MCF-7 cells, insulin stimulation, ELISA-One fluorescence)
Type: cell-based
Conditions: for inhibition at 0.5 µM / IC50 / inhibition at 0.25 µM / inhibition at 1 µM: Homo sapiens, MCF7, MCF-7 cells; for inhibition at 0.5 µM: conc. 0.5 μM; for inhibition at 0.25 µM: conc. 0.25 μM
In short: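 Fluorescence ELISA-One read-out on cell lysates, antibody-captured 1 h at room temperature. Before lysis, MCF-7 cells (2.5×10^4/well) were pretreated 2 h with compound in serum-free medium, single dose for screening or a dilution series for IC50, then stimulated 30 min with insulin ([…] final).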

[1] = conc. 1 μM, read-out: % inhibition AKT
[2] = conc. 1 μM, read-out: % inhibition p70s6k

COc1ncc(-c2ccc3nccc(=O)n3n2)cc1NS(=O)(=O)c1c(F)cccc1F [compound 73]
inhibition at 0.5 µM (read-out: % inhibition AKT): 40.5% | inhibition at 0.5 µM (read-out: % inhibition p70s6k): -2.1%

COCCOc1cnc2ccc(-c3cnc(OC)c(NS(=O)(=O)c4ccc(C)nc4C)c3)cn2c1=O [compound 192]
IC50 (read-out: IC50 p-AKT): ≤ 50 nM

COc1ncc(-c2ccc3nccc(=O)n3n2)cc1NS(=O)(=O)c1ccc(F)cc1F [compound 71, 2,4-difluoro-N-(2-methoxy-5-(4-oxo-4H-pyrimido[1,2-b]pyridazin-7-yl)pyridin-3-yl)benzsulfamide]
inhibition at 0.5 µM (read-out: % inhibition AKT): 63.2% | inhibition at 0.5 µM (read-out: % inhibition p70s6k): 20.7%

COCCNc1cnc2ccc(-c3cnc(OC)c(NS(=O)(=O)c4sc(C)nc4C)c3)cn2c1=O [compound 99]
IC50 (read-out: IC50 p-AKT): ≤ 50 nM

COc1ncc(-c2ccc3nn(C)c(=O)n3c2)cc1NS(=O)(=O)c1ccc(F)cc1F [compound 234]
IC50 (read-out: IC50 p-AKT): > 250 nM

COc1ncc(-c2ccc3ncc(Cl)c(=O)n3c2)cc1NS(=O)(=O)c1cc(F)cc(F)c1 [compound 147]
inhibition at 0.25 µM (read-out: % inhibition AKT): 80.3% | inhibition at 0.25 µM (read-out: % inhibition p70s6k): 81.3% | IC50 (read-out: IC50 p-AKT): 50 to 100 nM | IC50 (read-out: IC50 p-p70S6K): 50 to 100 nM

Cc1ncc(-c2ccc3nccc(=O)n3c2)cc1NS(=O)(=O)c1ccc(F)cc1F [compound 14]
% inhibition AKT (MCF-7 cells, conc. 1 μM): 81.4% | % inhibition p70s6k (MCF-7 cells, conc. 1 μM): 47.3%

COc1ncc(-c2ccc3ncc(F)c(=O)n3c2)cc1NS(=O)(=O)c1ccc(F)cc1Cl [compound 62]
inhibition at 0.5 µM (read-out: % inhibition AKT): 90.2% | inhibition at 0.5 µM (read-out: % inhibition p70s6k): 90.8% | IC50 (read-out: IC50 p-AKT): ≤ 50 nM | IC50 (read-out: IC50 p-p70S6K): 50 to 100 nM

COc1ncc(-c2ccc3ncc(Cl)c(=O)n3c2)cc1NS(=O)(=O)c1sc(Cl)nc1C [compound 168]
IC50 (read-out: IC50 p-AKT): ≤ 50 nM

COc1ncc(-c2ccc3ncc(OC)c(=O)n3c2)cc1NS(=O)(=O)c1sccc1C [compound 110]
IC50 (read-out: IC50 p-AKT): 50 to 100 nM

COc1ncc(-c2ccc3ncc(Cl)c(=O)n3c2)cc1NS(=O)(=O)c1cnc(C)n1C [compound 154]
inhibition at 0.25 µM (read-out: % inhibition AKT): 85.4% | inhibition at 0.25 µM (read-out: % inhibition p70s6k): 92.6% | IC50 (read-out: IC50 p-AKT): 100 to 250 nM | IC50 (read-out: IC50 p-p70S6K): 50 to 100 nM

COc1ncc(-c2ccc3nccc(=O)n3c2C)cc1NS(=O)(=O)c1cc(F)ccc1F [compound 60]
inhibition at 0.5 µM (read-out: % inhibition AKT): 67.9% | inhibition at 0.5 µM (read-out: % inhibition p70s6k): 43.9%

CCc1ccc(S(=O)(=O)Nc2cc(-c3ccc4ncc(OCCOC)c(=O)n4c3)cnc2OC)c(F)c1 [compound 281]
IC50 (read-out: IC50 p-AKT): ≤ 50 nM

COc1ncc(-c2ccc3ncc(OCC4(C)COC4)c(=O)n3c2)cc1NS(=O)(=O)c1sc(C)nc1C [compound 197]
IC50 (read-out: IC50 p-AKT): ≤ 50 nM

O=c1ccnc2ccc(-c3cnc(Cl)c(NS(=O)(=O)c4ccc(F)cc4F)c3)cn12 [compound 16]
inhibition at 1 µM [1]: 91.6% | inhibition at 1 µM [2]: 75.1% | IC50 (read-out: IC50 p-AKT): ≤ 50 nM | IC50 (read-out: IC50 p-p70S6K): > 250 nM

CCc1ncc(-c2ccc3nccc(=O)n3c2)cc1NS(=O)(=O)c1ccc(F)cc1F [compound 18]
inhibition at 1 µM [1]: 85.7% | inhibition at 1 µM [2]: 46.2%

COc1ncc(-c2ccc3ncc(N)c(=O)n3c2)cc1NS(=O)(=O)c1ccc(F)cc1C [compound 89]
inhibition at 0.5 µM (read-out: % inhibition AKT): 93% | inhibition at 0.5 µM (read-out: % inhibition p70s6k): 88.1% | IC50 (read-out: IC50 p-AKT): ≤ 50 nM | IC50 (read-out: IC50 p-p70S6K): 100 to 250 nM

COc1ncc(-c2ccc3ncc(Cl)c(=O)n3c2)cc1NS(=O)(=O)c1cccc(C)c1 [compound 140]
inhibition at 0.5 µM (read-out: % inhibition AKT): 94.8% | inhibition at 0.5 µM (read-out: % inhibition p70s6k): 90.5% | IC50 (read-out: IC50 p-AKT): ≤ 50 nM | IC50 (read-out: IC50 p-p70S6K): 50 to 100 nM

COCCOc1cnc2ccc(-c3cnc(OC)c(NS(=O)(=O)c4sccc4C)c3)cn2c1=O [compound 182]
IC50 (read-out: IC50 p-AKT): > 250 nM

COc1ncc(-c2ccc3ncc(OC)c(=O)n3c2)cc1NS(=O)(=O)c1sc(C)nc1C [compound 111]
IC50 (read-out: IC50 p-AKT): ≤ 50 nM

O=c1ccnc2ccc(-c3cnc(Cl)c(NS(=O)(=O)c4ccccc4F)c3)cn12 [compound 19]
inhibition at 1 µM [1]: 91.2% | inhibition at 1 µM [2]: 74.1% | IC50 (read-out: IC50 p-AKT): ≤ 50 nM | IC50 (read-out: IC50 p-p70S6K): > 250 nM

COc1ncc(-c2cn3c(=O)ccnc3cc2F)cc1NS(=O)(=O)c1ccc(F)cc1Cl [compound 117]
inhibition at 0.5 µM (read-out: % inhibition AKT): 63.7% | inhibition at 0.5 µM (read-out: % inhibition p70s6k): 16.6%

COCCOc1cnc2ccc(-c3cnc(OC)c(NS(=O)(=O)c4sc(Cl)cc4C)c3)cn2c1=O [compound 196]
IC50 (read-out: IC50 p-AKT): ≤ 50 nM

COc1ncc(-c2ccc3ncc(OC)c(=O)n3c2)cc1NS(=O)(=O)c1ccccc1F [compound 107]
inhibition at 0.5 µM (read-out: % inhibition AKT): 94.5% | inhibition at 0.5 µM (read-out: % inhibition p70s6k): 91% | IC50 (read-out: IC50 p-AKT): ≤ 50 nM | IC50 (read-out: IC50 p-p70S6K): 50 to 100 nM

COc1ncc(-c2ccc3nccc(=O)n3n2)cc1NS(=O)(=O)c1ccccc1Cl [compound 74]
inhibition at 0.5 µM (read-out: % inhibition AKT): 74.1% | inhibition at 0.5 µM (read-out: % inhibition p70s6k): 26%

COc1ncc(-c2ccc3ncc(Cl)c(=O)n3c2)cc1NS(=O)(=O)c1ncccc1Cl [compound 159]
inhibition at 0.25 µM (read-out: % inhibition AKT): 68.6% | inhibition at 0.25 µM (read-out: % inhibition p70s6k): 84.8% | IC50 (read-out: IC50 p-AKT): 100 to 250 nM | IC50 (read-out: IC50 p-p70S6K): 100 to 250 nM

COc1ncc(-c2ccc3nc(C)cc(=O)n3c2)cc1NS(=O)(=O)c1ccccc1F [compound 230]
inhibition at 0.5 µM (read-out: % inhibition AKT): 43.5% | inhibition at 0.5 µM (read-out: % inhibition p70s6k): 8.8%

COc1ncc(-c2ccc3ncc(OCC4COC4)c(=O)n3c2)cc1NS(=O)(=O)c1ccccc1F [compound 256]
IC50 (read-out: IC50 p-AKT): ≤ 50 nM

COc1ncc(-c2ccc3nccc(=O)n3c2)cc1NS(=O)(=O)c1ccc(Cl)cc1F [compound 27]
inhibition at 1 µM [1]: 94.8% | inhibition at 1 µM [2]: 93.5%

COCOCCOc1cnc2ccc(-c3cnc(OC)c(NS(=O)(=O)c4sc(C)nc4C)c3)cn2c1=O [compound 188]
IC50 (read-out: IC50 p-AKT): ≤ 50 nM

COc1ncc(-c2ccc3nccc(=O)n3c2)cc1NS(=O)(=O)c1cccc(F)c1 [compound 3]
inhibition at 1 µM [1]: 95.9% | inhibition at 1 µM [2]: 52.4% | IC50 (read-out: IC50 p-AKT): 50 to 100 nM | IC50 (read-out: IC50 p-p70S6K): 50 to 100 nM

COc1ncc(-c2ccc3nccc(=O)n3n2)cc1NS(=O)(=O)c1cc(F)ccc1F [compound 76]
inhibition at 0.5 µM (read-out: % inhibition AKT): 54.3% | inhibition at 0.5 µM (read-out: % inhibition p70s6k): 12.2%

COc1ncc(-c2ccc3ncc(F)c(=O)n3c2)cc1NS(=O)(=O)c1ccccc1Cl [compound 63]
inhibition at 0.5 µM (read-out: % inhibition AKT): 89.5% | inhibition at 0.5 µM (read-out: % inhibition p70s6k): 92.9% | IC50 (read-out: IC50 p-AKT): ≤ 50 nM | IC50 (read-out: IC50 p-p70S6K): ≤ 50 nM

COc1ncc(-c2ccc3ncc(F)c(=O)n3c2)cc1NS(=O)(=O)c1c(F)cccc1F [compound 68]
inhibition at 0.5 µM (read-out: % inhibition AKT): 88% | inhibition at 0.5 µM (read-out: % inhibition p70s6k): 90.3% | IC50 (read-out: IC50 p-AKT): ≤ 50 nM | IC50 (read-out: IC50 p-p70S6K): 50 to 100 nM

CCc1ncc(-c2ccc3nccc(=O)n3c2)cc1NS(=O)(=O)c1ccccc1F [compound 17]
inhibition at 1 µM [1]: 81.1% | inhibition at 1 µM [2]: 34.1%

COc1ncc(-c2cn3c(=O)ccnc3cc2F)cc1NS(=O)(=O)c1c(F)cccc1F [compound 114]
inhibition at 0.5 µM (read-out: % inhibition AKT): 53% | inhibition at 0.5 µM (read-out: % inhibition p70s6k): -1.2%

COc1ncc(-c2ccc3nccc(=O)n3c2)cc1NS(=O)(=O)c1ccccc1F [compound 2]
inhibition at 1 µM [1]: 94.2% | inhibition at 1 µM [2]: 50.8% | IC50 (read-out: IC50 p-AKT): 100 to 250 nM | IC50 (read-out: IC50 p-p70S6K): > 250 nM

COc1ncc(-c2cn3c(=O)ccnc3cn2)cc1NS(=O)(=O)c1ccccc1Cl [compound 51]
inhibition at 0.5 µM (read-out: % inhibition AKT): 64.1% | inhibition at 0.5 µM (read-out: % inhibition p70s6k): 13.6%

COCCOc1cnc2ccc(-c3cnc(OC)c(NS(=O)(=O)c4ccc(F)cc4C(F)(F)F)c3)cn2c1=O [compound 278]
IC50 (read-out: IC50 p-AKT): ≤ 50 nM

COc1ncc(-c2cn3c(=O)ccnc3cn2)cc1NS(=O)(=O)c1cc(F)cc(F)c1 [compound 40]
inhibition at 0.5 µM (read-out: % inhibition AKT): 18.1% | inhibition at 0.5 µM (read-out: % inhibition p70s6k): 13.7%

COc1ncc(-c2ccc3ncc(OC4CCC(OC)CC4)c(=O)n3c2)cc1NS(=O)(=O)c1sc(C)nc1C (stereo not drawn) [compound 207]
IC50 (read-out: IC50 p-AKT): 50 to 100 nM

COc1ncc(-c2cn3c(=O)ccnc3cc2F)cc1NS(=O)(=O)c1ccc(C(F)(F)F)cc1 [compound 118]
inhibition at 0.5 µM (read-out: % inhibition AKT): 27.8% | inhibition at 0.5 µM (read-out: % inhibition p70s6k): 11.5%
